From patent US9296734B2 (AMGEN INC., priority 2013, dated 2016)
Read-outs that look alike come from different tables or passages of the source.

Columns and labels:
[1] = test system: Aβ40 in conditioned medium of cells stably expressing Amyloid Precursor Protein (APP); experiment: In vitro BACE cell-based assay (Aβ40 sandwich ELISA); settings: Homo sapiens
Method: In Vitro BACE Cell-Based Assay
The cell-based assay measures inhibition or reduction of Aβ40 in conditioned medium of test compound treated cells expressing amyloid precursor protein.
Cells stably expressing Amyloid Precursor Protein (APP) were plated at a density of 40K cells/well in 96 well plates (Costar). The cells were cultivated for 24 hours at 37° C. and 5% CO2 in DMEM supplemented with 10% FBS. The test compounds were then added to cells in 10-point dose response concentrations with the starting concentration being either 100 μM or 10 μM. The compounds were diluted from stock solutions in DMSO and the final DMSO concentration of the test compounds on cells was 0.1%. After 24 h of incubation with the test compounds the supernatant conditioned media was collected and the Aβ 40 levels were determined using a sandwich ELISA. The IC50 of the compound was calculated from the percent of control or percent inhibition of Aβ 40 as a function of the concentration of the test compound.
The sandwich ELISA to detect Aβ 40 was performed in 96 well microtiter plates, which were pre-treated with goat anti-rabbit IgG (Pierce). The capture and detecting antibody pair that were used to detect Aβ 40 from cell supernatants were affinity purified pAb40 (Biosource) and biotinylated 6E10 (Signet Labs Inc.), respectively. The optimal concentration for the pAb40 antibody was 3 μg/ml in Superblock/TBS (Pierce) that was supplemented with 0.05% Tween 20 (Sigma).
Cellular supernatants were incubated with the capture antibody for 3 h at 4° C., followed by 3 wash steps in TBS-tween (0.05%). The detecting antibody incubation was for 2 h at 4° C., again followed by the wash steps as described previously. The final readout of the ELISA is Time-Resolved Fluorescence (counts per minute) using Delfia reagents Streptavidin-Europium and Enhancement solutions (Perkin Elmer) and the Victor 2 multilabel counter (Perkin Elmer).

[2] = molecular target: Beta Secretase enzyme (BACE) (Homo sapiens (Human), UniProt P56817); experiment: In vitro enzymatic BACE FRET assay; format: biochemical; settings: read-out: BACE 1 FRET assay IC50
Method: In Vitro Enzymatic BACE FRET (Fluorescence Resonance Energy Transfer) Assay (Enzyme Assay Data in the Example Table I)
The assay buffer used in this screen is 0.05 M acetate, pH 4.2, 10% DMSO final, 100 uM genapol (which is a nonionic detergent, below its Critical Micelle Concentration). […] This assay is effectively started by the addition of FRET substrate (50 nM) and the combination is incubated for one hour. The FRET assay is terminated with by addition of Tris buffer, which raises the pH to neutrality, and the fluorescence is determined. The FRET substrate is a peptide with commercially available fluorophore and quencher, on opposite sides of the BACE cleavage site.

Cathepsin D (Cat D) = Cathepsin D (Cat D) (Homo sapiens (Human), UniProt P07339); experiment: In vitro enzymatic Cathepsin D (Cat D) FRET assay; format: biochemical; settings: read-out: CatD IC50
Summary of the method: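 CHO-expressed recombinant Cat D cleaves a fluorophore/quencher FRET peptide (20 nM) in 0.05 M citrate pH 3.5, 5 mM CHAPS, 10% DMSO final, over 1 h. Tris addition neutralizes pH to stop the reaction; fluorescence read at excitation 500 nm, emission 580 nm.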

[3] = HEK293, average IC50, HEK cells, read-out: HEK cell assay IC50
[4] = HEK293, read-out: HEK cell assay IC50
[5] = average IC50, BACE enzyme assay
[6] = average IC50, cathepsin D enzyme assay
[7] = HEK293, HEK cells, average, read-out: HEK cell assay IC50
[8] = HEK293, average IC50, HEK cell assay, read-out: HEK cell assay IC50

Chain of Cathepsin D (Cat D) (P07339 65-412, species assumed): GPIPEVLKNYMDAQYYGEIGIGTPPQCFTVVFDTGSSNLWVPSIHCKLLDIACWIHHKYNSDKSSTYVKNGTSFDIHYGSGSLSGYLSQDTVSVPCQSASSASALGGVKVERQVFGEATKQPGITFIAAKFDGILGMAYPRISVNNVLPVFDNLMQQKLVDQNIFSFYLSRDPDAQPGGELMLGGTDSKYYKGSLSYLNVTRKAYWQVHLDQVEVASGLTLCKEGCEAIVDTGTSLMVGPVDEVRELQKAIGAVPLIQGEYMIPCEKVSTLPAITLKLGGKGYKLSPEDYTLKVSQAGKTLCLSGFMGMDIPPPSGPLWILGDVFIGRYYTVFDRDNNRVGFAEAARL
Chain of Beta Secretase enzyme (BACE) (P56817 46-501): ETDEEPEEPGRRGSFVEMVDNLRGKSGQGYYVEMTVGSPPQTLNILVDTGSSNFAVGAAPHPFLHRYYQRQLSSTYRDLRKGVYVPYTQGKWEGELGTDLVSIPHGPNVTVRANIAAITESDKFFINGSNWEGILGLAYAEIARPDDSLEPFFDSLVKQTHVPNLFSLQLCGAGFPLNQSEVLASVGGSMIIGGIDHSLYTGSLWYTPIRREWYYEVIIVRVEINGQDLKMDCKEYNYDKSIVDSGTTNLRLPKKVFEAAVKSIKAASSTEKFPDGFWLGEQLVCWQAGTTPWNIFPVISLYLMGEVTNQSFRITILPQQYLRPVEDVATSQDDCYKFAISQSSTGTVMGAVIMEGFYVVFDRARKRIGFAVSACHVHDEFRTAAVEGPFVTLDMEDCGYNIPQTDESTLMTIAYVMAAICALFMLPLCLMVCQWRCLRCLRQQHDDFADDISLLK

| IC50 [1, 3] | IC50 ([2]; average IC50) | IC50 (Cathepsin D (Cat D); average IC50) | IC50 [1, 7] | IC50 ([2]; average) | IC50 (Cathepsin D (Cat D); average) | Structure (SMILES) | further results |
| --- | --- | --- | --- | --- | --- | --- | --- |
| 0.0101 µM | 0.121 µM | > 400 µM |  |  |  | Cc1cc(C#N)cnc1C(=O)Nc1cc([C@]2(C)C[C@@H](C(F)(F)F)OC(N)=N2)c(=O)n(C)c1 [Example 150, N-(5-((4S,6S)-2-amino-4-methyl-6-(trifluoromethyl)-5,6-dihydro-4H-1,3-oxazin-4-yl)-1-methyl-6-oxo-1,6-dihydropyridin-3-yl)-5-cyano-3-methylpicolinamide] |  |
| 0.042 µM | 0.0329 µM | > 400 µM |  |  |  | C[C@@]1(c2cc(Nc3nccc4cc(Cl)cnc34)cnc2F)C[C@@H](C(F)(F)F)OC(N)=N1 [Example 76, (4S,6S)-4-(5-((3-chloro-1,7-naphthyridin-8-yl)amino)-2-fluoropyridin-3-yl)-4-methyl-6-(trifluoromethyl)-5,6-dihydro-4H-1,3-oxazin-2-amine] |  |
|  |  |  |  |  |  | C[Si](C)(C)C#Cc1ccc(-c2ccc(F)c([C@]3(CF)C[C@@H](C(F)(F)F)OC(N)=N3)c2)cn1 [Example 111, (4S,6S)-4-(2-fluoro-5-(6-((trimethylsilyl)ethynyl)pyridin-3-yl)phenyl)-4-(fluoromethyl)-6-(trifluoromethyl)-5,6-dihydro-4H-1,3-oxazin-2-amine] | IC50 [1, 4]: > 15.6 µM; IC50 [2, 5]: 37.2 µM; IC50 (Cathepsin D (Cat D); [6]): > 400 µM |
| 0.154 µM | 0.117 µM | 2370 µM |  |  |  | NC1=N[C@](CF)(c2cccc(NC(=O)c3ccc(Cl)cn3)c2)C[C@@H](C(F)(F)F)O1 [Example 143, N-(3-((4S,6S)-2-amino-4-(fluoromethyl)-6-(trifluoromethyl)-5,6-dihydro-4H-1,3-oxazin-4-yl)phenyl)-5-chloropicolinamide] |  |
| 0.0084 µM | 0.0254 µM | 609 µM |  |  |  | C#CCOc1cnc(C(=O)Nc2ccc(F)c([C@]3(C)C[C@@H](C(F)(F)F)OC(N)=N3)n2)cn1 [Example 87, N-(6-((4S,6S)-2-amino-4-methyl-6-(trifluoromethyl)-5,6-dihydro-4H-1,3-oxazin-4-yl)-5-fluoropyridin-2-yl)-5-(prop-2-yn-1-yloxy)pyrazine-2-carboxamide] |  |
|  |  |  | 0.509 µM | 0.509 µM | > 400 µM | N#Cc1ccc(C#Cc2ccc(F)c([C@]3(CF)C[C@@H](C(F)(F)F)OC(N)=N3)c2)nc1 [Example 125, 6-((3-((4S,6S)-2-amino-4-(fluoromethyl)-6-(trifluoromethyl)-5,6-dihydro-4H-1,3-oxazin-4-yl)-4-fluorophenyl)ethynyl)nicotinonitrile] |  |
| 0.0391 µM | 0.0552 µM | > 400 µM |  |  |  | Cc1cc(Cl)cnc1C(=O)Nc1cnc(F)c([C@]2(C)C[C@@H](C(F)(F)F)OC(N)=N2)c1 [Example 61, N-(5-((4S,6S)-2-amino-4-methyl-6-(trifluoromethyl)-5,6-dihydro-4H-1,3-oxazin-4-yl)-6-fluoropyridin-3-yl)-5-chloro-3-methylpicolinamide] |  |
| > 15.6 µM | 9.97 µM | > 400 µM |  |  |  | NC1=N[C@](CF)(c2cc(Oc3ncccn3)ccc2F)C[C@@H](C(F)(F)F)O1 [Example 108, (4S,6S)-4-(2-fluoro-5-(pyrimidin-2-yloxy)phenyl)-4-(fluoromethyl)-6-(trifluoromethyl)-5,6-dihydro-4H-1,3-oxazin-2-amine] |  |
| 0.023 µM | 0.0348 µM | > 400 µM |  |  |  | Cc1cc(C#N)cnc1C(=O)Nc1cnc(F)c([C@]2(C)C[C@@H](C(F)(F)F)OC(N)=N2)c1 [Example 67, N-(5-((4S,6S)-2-amino-4-methyl-6-(trifluoromethyl)-5,6-dihydro-4H-1,3-oxazin-4-yl)-6-fluoropyridin-3-yl)-5-cyano-3-methylpicolinamide] |  |
|  |  |  | 0.0319 µM | 0.01 µM | 739 µM | C[C@@]1(c2cc(NC(=O)c3ccc(Br)cn3)cc(Cl)c2F)C[C@@H](C(F)(F)F)OC(N)=N1 [Example 213, N-(3-((4S,6S)-2-amino-4-methyl-6-(trifluoromethyl)-5,6-dihydro-4H-1,3-oxazin-4-yl)-5-chloro-4-fluorophenyl)-5-bromopicolinamide] |  |
|  |  |  | 0.549 µM | 0.097 µM | 511 µM | Cc1cc(OCC2CC2)cnc1C(=O)Nc1cc(F)c(F)c([C@]2(C)C[C@@H](C(F)(F)F)OC(N)=N2)c1 [Example 191, N-(3-((4S,6S)-2-amino-4-methyl-6-(trifluoromethyl)-5,6-dihydro-4H-1,3-oxazin-4-yl)-4,5-difluorophenyl)-5-(cyclopropylmethoxy)-3-methylpicolinamide] |  |
|  |  |  |  |  |  | NC1=N[C@](CF)(c2cc(Nc3ncc(F)c4cc(C#CC5CC5)cnc34)ccc2F)C[C@@H](C(F)(F)F)O1 [Example 54, (4S,6S)-4-(5-((3-(cyclopropylethynyl)-5-fluoro-1,7-naphthyridin-8-yl)amino)-2-fluorophenyl)-4-(fluoromethyl)-6-(trifluoromethyl)-5,6-dihydro-4H-1,3-oxazin-2-amine] | IC50 [1, 8]: 2.33 µM; IC50 [2, 5]: 0.033 µM; IC50 (Cathepsin D (Cat D); [6]): > 133 µM |
|  |  |  |  |  |  | Cc1cc(OC(F)F)cnc1C(=O)Nc1ccc(F)c([C@]2(CF)C[C@@H](C(F)(F)F)OC(N)=N2)c1 [Example 42, N-(3-((4S,6S)-2-amino-4-(fluoromethyl)-6-(trifluoromethyl)-5,6-dihydro-4H-1,3-oxazin-4-yl)-4-fluorophenyl)-5-(difluoromethoxy)-3-methylpicolinamide] | IC50 [1, 8]: 0.051 µM; IC50 [2, 5]: 0.026 µM; IC50 (Cathepsin D (Cat D); [6]): > 400 µM |
|  |  |  | 0.024 µM | 0.057 µM | > 400 µM | Cc1cc(NC(=O)c2ccc(C#N)cn2)cc([C@]2(CF)C[C@@H](C(F)(F)F)OC(N)=N2)c1F [Example 225, N-(3-((4S,6S)-2-amino-4-(fluoromethyl)-6-(trifluoromethyl)-5,6-dihydro-4H-1,3-oxazin-4-yl)-4-fluoro-5-methylphenyl)-5-cyanopicolinamide] |  |
|  |  |  | 7.46 µM | 26.6 µM | > 400 µM | CNC(=O)c1ccc(C#Cc2ccc(F)c([C@]3(CF)C[C@@H](C(F)(F)F)OC(N)=N3)c2)nc1 [Example 126, 6-((3-((4S,6S)-2-amino-4-(fluoromethyl)-6-(trifluoromethyl)-5,6-dihydro-4H-1,3-oxazin-4-yl)-4-fluorophenyl)ethynyl)-N-methylnicotinamide] |  |
|  |  |  | 0.038 µM | 0.081 µM | 634 µM | COc1cnc(C(=O)Nc2cc(C)c(F)c([C@]3(CF)C[C@@H](C(F)(F)F)OC(N)=N3)c2)c(C)n1 [Example 217, N-(3-((4S,6S)-2-amino-4-(fluoromethyl)-6-(trifluoromethyl)-5,6-dihydro-4H-1,3-oxazin-4-yl)-4-fluoro-5-methylphenyl)-5-methoxy-3-methylpyrazine-2-carboxamide] |  |
| 0.0248 µM | 0.0956 µM | > 400 µM |  |  |  | C[C@@]1(c2cc(Nc3nccc4cc(C#N)cnc34)cnc2F)C[C@@H](C(F)(F)F)OC(N)=N1 [Example 77, 8-((5-((4S,6S)-2-amino-4-methyl-6-(trifluoromethyl)-5,6-dihydro-4H-1,3-oxazin-4-yl)-6-fluoropyridin-3-yl)amino)-1,7-naphthyridine-3-carbonitrile] |  |

| Structure (SMILES) | IC50 [1, 3] | IC50 ([2]; average IC50) | IC50 (Cathepsin D (Cat D); average IC50) | IC50 [1, 7] | IC50 ([2]; average) | IC50 (Cathepsin D (Cat D); average) | further results |
| --- | --- | --- | --- | --- | --- | --- | --- |
| NC1=N[C@](CF)(c2cc(NC(=O)c3ccc(Cl)cn3)cnc2F)C[C@@H](C(F)(F)F)O1 [Example 139, N-(5-((4S,6S)-2-amino-4-(fluoromethyl)-6-(trifluoromethyl)-5,6-dihydro-4H-1,3-oxazin-4-yl)-6-fluoropyridin-3-yl)-5-chloropicolinamide] |  | 0.0965 µM | > 400 µM |  |  |  | IC50 [1, 4]: 0.418 µM |
| C[C@@]1(c2cc(NC(=O)c3cnc(OCc4ncco4)cn3)cc(F)c2F)C[C@@H](C(F)(F)F)OC(N)=N1 [Example 204, N-(3-((4S,6S)-2-amino-4-methyl-6-(trifluoromethyl)-5,6-dihydro-4H-1,3-oxazin-4-yl)-4,5-difluorophenyl)-5-(oxazol-2-ylmethoxy)pyrazine-2-carboxamide] |  |  |  |  | 0.006 µM | 1040 µM | IC50 [1, 4]: 0.003 µM |
